The text below walks through data of patent US20100035865A1, “Sulfonamides and Pharmaceutical Compositions Thereof” (PFIZER INC, priority 2007, published 2010).

For orientation: EC50 means the midpoint of the concentration-response curve.

For the experiment, the system named is AMPA receptors. Description: AMPA ES Cell FLIPR Screen, G7330B (EC50 and % effect). Format: cell-based, murine. The conditions noted are these: for EC50: ES cell-derived neurons, 32 uM AMPA challenge. The procedure: The murine ES cell line used was E14-Sx1-16C, which has a targeted mutation in the Sox1 gene, a neuroectodermal marker, that offers G418 resistance when the Sox1 gene is expressed (Stem Cell Sciences). ES cells were maintained undifferentiated as previously described (Roach). […] ES cells were plated on gelatin-coated dishes (BD Biosciences), the media was changed daily and the cells were dissociated with 0.05% Trypsin EDTA (Invitrogen) every other day.
Embryoid Body Formation: Prior to embryoid body (EB) formation the ES cells were weaned from FBS onto Knockout Serum Replacement (KSR) (Invitrogen). To form EBs, ES cells were dissociated into a single cell suspension then 3×10^6 cells were plated in bacteriology dishes (Nunc 4014) and grown as a suspension culture in NeuroEB-I medium that consisted of Knockout™ D-MEM (Invitrogen), supplemented with 10% KSR (Invitrogen), 0.2 mM L-Glutamine (Invitrogen), 0.1 mM MEM non-essential amino acids (Invitrogen), 30 μg/ml Gentamicin (Invitrogen), 1000 u/ml ESGRO (Chemicon), 0.1 mM 2-Mercaptoethanl (Sigma) and 150 ng/ml Transferrin (Invitrogen). The plates were put on a Stovall Belly Button shaker in an atmospheric oxygen incubator. The media was changed on day 2 of EB formation with NeuroEB-I and on day 4 with NeuroEB-II (NeuroEB-I plus 1 μg/ml mNoggin [R&D Systems]).
Neuronal Precursor Selection and Expansion: On day 5 of EB formation, EBs were dissociated with 0.05% Trypsin EDTA, and 4×10^6 cells/100 mm dish were plated on Laminin coated tissue culture dishes in NeuroII-G418 medium that consisted of a base medium of a 1:1 mixture of D-MEM/F12 supplemented with N2 supplements and NeuroBasal Medium supplemented with B27 supplement and 0.1 mM L-Glutamine (all from Invitrogen). The base medium was then supplemented with 10 ng/ml bFGF (Invitrogen), 1 μg/ml mNoggin, 500 ng/ml SHH-N, 100 ng/ml FGF-8b (R&D Systems), 1 μg/ml Laminin and 200 μg/ml G418 (Invitrogen) for selection of neuronal precursors expressing Sox-1. The plates were put in an incubator that contained 2% Oxygen and were maintained in these conditions. During the 6-day selection period, the NeuroII media was changed daily. On day 6, the surviving neuronal precursor foci were dissociated with 0.05% Trypsin EDTA and the cells were plated at a density of 1.5×10^6 cells/100 mm Laminin coated dish in NeuroII-G418 medium. The cells were dissociated every other day for expansion, and prepared for Cryopreservation at passage 3 or 4. The cryopreservation medium contained 50% KSR, 10% Dimethyl Sulfoxide (DMSO) (Sigma) and 40% NeuroI-G418I medium. Neuronas precursors were crypreserved at a concentration of 4×10^6cells/ml and 1 ml/cryovial in a controlled rate freezer overnight then transferred to an ultra-low freezer or liquid nitrogen for long-term storage,
Neuronal Differentiation: Cryopreserved ES cell-derived neuronal precursors were thawed by the rapid thaw method in a 37-degree water-bath. The cells were transferred from the cryovial to a 100 mm Laminin coated tissue culture dish that already contained NeuroII-G418 that had been equilibrated in a 2% Oxygen incubator. The media was changed with fresh NeuroII-G418 the next day. The cells were dissociated every other day as described above for expansion to generate enough cells to plate for the screen. For the screen, the cells were plated into 384-well poly-d-lysine coated tissue culture dishes (BD Biosciences) by the automated SelecT at a cell density of 6K cells/well in differentiation medium NeuroIII that contained a 4:1 ratio of the NeuroBasalMedium/B27:D-MEM/F12/N2 supplemented with 1 μM cAMP (Sigma), 200 μM Ascorbic Acid (Sigma), 1 μg/ml Laminin (Invitrogen) and 10 ng/ml BDNF (R&D Systems). The plates were put in an incubator with 2% Oxygen and allowed to complete the differentiation process for 7 days. The cells could then be used over a 5-day period for the high throughput screen.
Procedure for AMPA ES Cell FLIPR Screen […]

[1] abbreviates: individual determinations, read-out: G7330B (U): EC50.
Setting [2] is: mean of individual determinations (range and n in cells below), read-out: G7330B mean EC50.
Setting [3] is: Dose 32.0 uM, individual determinations.
Setting [4] is: Dose 31.6 uM, individual determinations.

Values joined by “and” are separate entries in the source; they are usually repeats but may differ in a detail not shown here. Identical values can stand only once. Like-named read-outs stand apart in the source and are kept apart here. Bounds are passed on as bounds.

In the case of `CC(C)S(=O)(=O)N[C@@H]1COCC[C@H]1c1ccc(-c2ccc(S(C)(=O)=O)cc2)cc1` [Example 37, Propane-2-sulfonic acid[trans-4-(4′-methanesulfonyl-biphenyl-4-yl)-tetrahydro-pyran-3-yl]-amide], the EC50 reads like this: under setting [1], more than 10 µM; under setting [2], more than 10 µM.

Regarding `CC(C)S(=O)(=O)NC1CCOCC1c1ccc(-c2ccccc2)cc1` (stereo not drawn) [Example 17, Propane-2-sulfonic acid(cis-3-biphenyl-4-yl-tetrahydro-pyran-4-yl)-amide], the “G7330B (U): % Effect” value under setting [3] is 150% and 138% and 125%. Besides, the concentration for a half-maximal effect (EC50) came to 7.17 µM under setting [1] and 7.17 µM under setting [2].

Consider `CCOc1ccccc1-c1ccc(C2CCOCC2NS(=O)(=O)C(C)C)cc1` (stereo not drawn) [Example 33, Propane-2-sulfonic acid[trans-4-(2′-ethoxy-biphenyl-4-yl)-tetrahydro-pyran-3-yl]-amide], for which the “G7330B (U): % Effect” value under setting [4] is 122% and 121%. Besides, the concentration giving a half-maximal response (EC50) is 1.94 µM under setting [1] and 1.94 µM under setting [2].

Consider `CC(=O)N1CCC(NS(=O)(=O)C(C)C)C(c2ccc(-c3ccccc3)cc2)C1` (stereo not drawn) [Example 27, propane-2-sulfonic acid(trans-1-acetyl-3-biphenyl-4-yl-piperidin-4-yl)-amide], for which, under setting [3], the “G7330B (U): % Effect” value was 136% and 134% and 127%. Moreover, the EC50 under setting [1] was 6.92 µM and the EC50 under setting [2] is 6.92 µM.

Consider `CC(C)S(=O)(=O)NC1CCNCC1c1ccc(-c2ccccc2Cl)cc1` (stereo not drawn) [Example 22, Propane-2-sulfonic acid[trans-3-(2′-chloro-biphenyl-4-yl)-piperidin-4-yl]-amide], for which the “G7330B (U): % Effect” value under setting [3] is 18.9% and 23.3% and 17.1%. In addition, the EC50 by setting is: under setting [1], more than 32 µM; under setting [2], more than 32 µM.

Regarding `CC(=O)N1CCC(NS(=O)(=O)C(C)C)C(c2ccc(-c3ccc(C#N)cc3)cc2)C1` (stereo not drawn) [Example 28, Propane-2-sulfonic acid[trans-1-acetyl-3-(4′-cyano-biphenyl-4-yl)-piperidin-4-yl]-amide], the “G7330B (U): % Effect” value under setting [3] is 128% and 132% and 116%. For the same molecule, the EC50 under setting [1] amounted to 6.44 µM and the EC50 under setting [2] was 6.44 µM.

Turning to `CC(C)S(=O)(=O)NC1CCOCC1c1ccc(-c2ccccc2)cc1` (stereo not drawn) [Example 15, Propane-2-sulfonic acid(trans-3-biphenyl-4-yl-tetrahydro-pyran-4-yl)-amide], under setting [3], the “G7330B (U): % Effect” value is 108% and 109% and 101%. The EC50 was 2.84 µM and 3.14 µM and 5.42 µM under setting [1]; 3.64 µM under setting [2].

For `CC(=O)N1CCC(NS(=O)(=O)C(C)C)C(c2ccc(-c3ccccc3C#N)cc2)C1` (stereo not drawn) [Example 29, Propane-2-sulfonic acid[trans-1-acetyl-3-(2′-cyano-biphenyl-4-yl)-piperidin-4-yl]-amide], the “G7330B (U): % Effect” value under setting [4] was 201% and 204% and 155% (2×) and 159% and 194% and 364% and 391% and 363% and 195% (3×) and 187% and 150% and 151% and 202%. Moreover, the EC50 runs as follows: under setting [1], 1.73 µM and 1.44 µM and 2.16 µM and 1.96 µM and 1.28 µM and 1.51 µM and 2.74 µM and 2.29 µM and 3.61 µM and 3.13 µM; under setting [2], 2.07 µM.

Consider `CC(C)S(=O)(=O)NC1CCN(C)CC1c1ccc(-c2ccc(C#N)cc2)cc1` (stereo not drawn) [Example 24, Propane-2-sulfonic acid[trans-3-(4′-cyano-biphenyl-4-yl)-1-methyl-piperidin-4-yl]-amide], for which, under setting [4], the “G7330B (U): % Effect” value was 14.5% and 19.9% and 12.7%. Further, the EC50 under setting [1] was more than 31.6 µM and the EC50 under setting [2] was more than 31.6 µM.

As to `CC(C)S(=O)(=O)N[C@H]1COCC[C@]1(O)c1ccc(-c2ccccc2)cc1` (relative stereo) [Example 41, Propane-2-sulfonic acid((3S,4S)-rel-4-biphenyl-4-yl-4-hydroxytetrahydro-pyran-3-yl)-amide], under setting [4], the “G7330B (U): % Effect” value is 58.3% and 66.6%. Further, the EC50 runs as follows: under setting [1], 3.05 µM; under setting [2], 3.05 µM.

Turning to `CC(C)S(=O)(=O)NC1COCCC1c1ccc(-c2ccccc2)cc1` (stereo not drawn) [Example 31, Propane-2-sulfonic acid(cis-4-biphenyl-4-yl-tetrahydro-pyran-3-yl)-amide], the “G7330B (U): % Effect” value under setting [3] was 18.3% and 11.0% and 14.5%. Moreover, the EC50 was more than 32 µM under setting [1] and more than 32 µM under setting [2].
